Common to all, as to format: cell-based, human
One assay relates to c-raf mRNA. The assay is described as follows: c-raf mRNA levels by Northern blot in HMVEC. As for the experimental part: Human dermal microvascular cells (HMVEC-d; Clonetics, San Diego, Calif.) were cultivated in endothelial basal media (EBM, Clonetics) supplemented with 10% fetal bovine serum (HyClone, Logan, Utah). Cells were grown in 100 mm petri dishes until 70-80% confluent, then washed with PBS and OPTI-MEM (Life Technologies, Inc., Gaithersburg, Md.). The cells were then incubated in the presence of OPTI-MEM and […] LIPOFECTIN (a 1:1 (w/w) liposome formulation of the cationic lipid N-[1-(2,3-dioleyloxy)propyl]-n,n,n-trimethylammonium chloride (DOTMA), and dioleoyl phosphotidylethanolamine (DOPE) in membrane filtered water (Life Technologies, Gaithersburg, Md.), per 100 nM of oligonucleotide followed by addition of oligonucleotide at the appropriate concentrations.
For determination of mRNA levels by Northern blot, total RNA was prepared from cells by the guanidinium isothiocyanate procedure or by the Qiagen RNAEASY method (Qiagen, Santa Clarita, Calif.) at the indicated times after initiation of oligonucleotide treatment. Northern blot analysis was performed as described in Current Protocols in Molecular Biology (Ausubel, F. M., et al., (eds), 1987, Greene Publishing Assoc. and Wiley Interscience, New York). A glyceraldehyde 3-phosphate dehydrogenase (G3PDH) probe was purchased from Clontech (Palo Alto, Calif., Catalog Number 9805-1). RNA was quantified and normalized to G3PDH mRNA levels using a Molecular Dynamic PHOSPHORIMAGER (Sunnyvale, Calif.).
ISIS 12854 (SEQ ID NO. 2) is a 2'-O-methoxyethyl mixed backbone chimeric antisense oligonucleotide designed to hybridize with 3'-untranslated sequences contained within human c-raf mRNA. To determine whether this antisense oligonucleotide is effective as a c-raf inhibitor in endothelial cells, human dermal microvascular cells (HMVEC) were treated with ISIS 12854 (SEQ ID NO. 2) as described in Example 2. C-raf mRNA and protein expression was examined by northern and Western blot analysis. The c-raf cDNA probe was generated from the plasmid, p627 (American Type Culture Collection, Manassas, Va.; catalog #41050), following the supplied instructions. The c-raf antibody was obtained from Transduction Laboratories, Inc. (Lexington, Ky.).

The next assay has as its system A-raf protein. The assay is described as follows: A-raf protein expression by Western blot in HMVEC. Particulars: same blot stripped and blotted with antibody against A-raf. The procedure:
For determination of protein levels by Western blot, cellular extracts were prepared using […] of RIPA extraction buffer per 100-mm dish. The protein concentration was quantified by Bradford assay using the BioRad kit (BioRad, Hercules, Calif.). Equal amounts of protein were loaded on 10% or 12% SDS-PAGE mini-gel (Novex, San Diego, Calif.). Once transferred to PVDF membranes (Millipore, Bedford, Mass.), the membranes were then treated for a minimum of 2 hours with specific primary antibody followed by incubation with secondary antibody conjugated to HRP. The results were visualized by Enhanced Chemiluminescent (ECL) detection (New England BioLab, Beverly, Mass.). In some experiments, the blots were stripped in stripping buffer (2% SDS, 12.5 mM Tris, pH 6.8) for 30 minutes at 50° C. After extensive washing, the blots were blocked and blotted with different primary antibody.
Reduction of c-raf protein levels also occurred following oligonucleotide treatment. Reduction in protein expression was first detectable 24 hours after treatment and maximal reduction of c-raf protein levels was achieved 48 hours after treatment with 150 nM oligonucleotide. Reduction of c-raf protein levels persisted up to 72 hour following initial treatment.

For the next assay, the system named is ERK. The assay is described as follows: TNF-α-stimulated ERK activity, in vitro kinase assay on extracts of treated cells. The settings on record: 48 hours recovery, TNF-α 5 or 15 minutes. The procedure: (§1) To examine the effect of the c-raf antisense oligonucleotide (ISIS 12854, SEQ ID NO. 2) on ERK, JNK, and p38 MAPK activities stimulated by TNF-α, in vitro kinase assays were performed on extracts derived from cells treated with ISIS 12854 (SEQ ID NO. 2). Cells were treated with oligonucleotides and induced with cytokines. At the indicated time, cells were lysed on ice and debris was removed by centrifugation. Protein concentration was measured by Bradford assay. Lysate containing equal amounts of protein were incubated with primary antibody-agarose conjugates (ERK and p38 assay; Santa Cruz Biotechnology, Santa Cruz, Calif.), or with JNK1-specific or JNK2-specific antibodies (JNK assay; Upstate Biotechnology, Lake Placid, N.Y.), overnight at 4° C.
(§2) For isoform-specific JNK assays, anti-rabbit IgG conjugated with agarose beads was added to cell extracts following JNK antibody treatment and wash steps and incubated for 2 hours at 4° C. […]
(§3) Cells were treated with the c-raf antisense compound, ISIS 12854 (SEQ ID NO. 2), allowed to recover for 48 hours, at which time TNF-α was added for 5 or 15 minutes prior to cell lysis and initiation of the kinase assays. […] Suitable substrates and ATP were added to the immunoprecipitated kinase complexes and the reaction mixes were analyzed on SDS-PAGE. […]

In the next assay the test system is JNK. In words: TNF-α-stimulated JNK activity, in vitro kinase assay on extracts of treated cells. The settings on record: 48 hours recovery, TNF-α 5 or 15 minutes. As for the experimental part:
as §1, §2, §3

For a further assay, the system named is p38 MAPK. The assay is described as follows: TNF-α-stimulated p38 MAPK activity, in vitro kinase assay on extracts of treated cells. Particulars: 48 hours recovery, TNF-α 5 or 15 minutes. As for the experimental part: as §1, §2, §3

For “ToCoCoCoGoCsCsTsGsTsGsAsCsAsToGoCoAoToT [ISIS 12854]”, the “% mRNA Expression (c-raf)” value in the assay with c-raf mRNA (0.5 nM) amounted to 67%; in the assay on c-raf mRNA (2.5 nM), 31%; with c-raf mRNA (10 nM), 15%; in the assay with c-raf mRNA (50 nM), 10%; in the assay on c-raf mRNA (100 nM) it was 13%; with c-raf mRNA (200 nM), 3%. In addition, the “% mRNA Inhibition (c-raf)” value in the assay with c-raf mRNA (0.5 nM) was determined as 33%; in the assay on c-raf mRNA (2.5 nM) it was 69%; in the assay on c-raf mRNA (10 nM), 85%; in the assay on c-raf mRNA (50 nM), 90%; in the assay with c-raf mRNA (100 nM), 87%; in the assay with c-raf mRNA (200 nM), 97%. In the assay on c-raf mRNA (read-out: IC50 for c-raf mRNA reduction), the IC50 is around 2.5 nM. Moreover, the A-raf protein expression result in the assay with A-raf protein is “largely unaffected”. Also, the ERK activity result with ERK is listed as “reduced”. Further, in the assay on JNK, the JNK activity result was “inhibited”. Besides, the “Activation of p38 MAPK” value with p38 MAPK is “not affected”.

As a reminder, the IC50 is the point on the concentration scale where inhibition reaches its midpoint.

The values are drawn from patent publication US6114517A, “Methods of modulating tumor necrosis factor α-induced expression of cell adhesion molecules” (Isis Pharmaceuticals Inc., priority 1998, dated 2000).
